# Results taken from patent US9663529B2, “Tricyclic pyrido-carboxamide derivatives as rock inhibitors” (BRISTOL-MYERS SQUIBB COMPANY, priority 2013, dated 2017).
# Target: ROCK2 (Homo sapiens (Human), UniProt O75116)
# Test: ROCK assay (Caliper LABCHIP peptide phosphorylation, 5 μM ATP)
# Format: biochemical
# Settings: 1.5 μM peptide substrate
# Chain of ROCK2 (O75116 whole entry, species assumed): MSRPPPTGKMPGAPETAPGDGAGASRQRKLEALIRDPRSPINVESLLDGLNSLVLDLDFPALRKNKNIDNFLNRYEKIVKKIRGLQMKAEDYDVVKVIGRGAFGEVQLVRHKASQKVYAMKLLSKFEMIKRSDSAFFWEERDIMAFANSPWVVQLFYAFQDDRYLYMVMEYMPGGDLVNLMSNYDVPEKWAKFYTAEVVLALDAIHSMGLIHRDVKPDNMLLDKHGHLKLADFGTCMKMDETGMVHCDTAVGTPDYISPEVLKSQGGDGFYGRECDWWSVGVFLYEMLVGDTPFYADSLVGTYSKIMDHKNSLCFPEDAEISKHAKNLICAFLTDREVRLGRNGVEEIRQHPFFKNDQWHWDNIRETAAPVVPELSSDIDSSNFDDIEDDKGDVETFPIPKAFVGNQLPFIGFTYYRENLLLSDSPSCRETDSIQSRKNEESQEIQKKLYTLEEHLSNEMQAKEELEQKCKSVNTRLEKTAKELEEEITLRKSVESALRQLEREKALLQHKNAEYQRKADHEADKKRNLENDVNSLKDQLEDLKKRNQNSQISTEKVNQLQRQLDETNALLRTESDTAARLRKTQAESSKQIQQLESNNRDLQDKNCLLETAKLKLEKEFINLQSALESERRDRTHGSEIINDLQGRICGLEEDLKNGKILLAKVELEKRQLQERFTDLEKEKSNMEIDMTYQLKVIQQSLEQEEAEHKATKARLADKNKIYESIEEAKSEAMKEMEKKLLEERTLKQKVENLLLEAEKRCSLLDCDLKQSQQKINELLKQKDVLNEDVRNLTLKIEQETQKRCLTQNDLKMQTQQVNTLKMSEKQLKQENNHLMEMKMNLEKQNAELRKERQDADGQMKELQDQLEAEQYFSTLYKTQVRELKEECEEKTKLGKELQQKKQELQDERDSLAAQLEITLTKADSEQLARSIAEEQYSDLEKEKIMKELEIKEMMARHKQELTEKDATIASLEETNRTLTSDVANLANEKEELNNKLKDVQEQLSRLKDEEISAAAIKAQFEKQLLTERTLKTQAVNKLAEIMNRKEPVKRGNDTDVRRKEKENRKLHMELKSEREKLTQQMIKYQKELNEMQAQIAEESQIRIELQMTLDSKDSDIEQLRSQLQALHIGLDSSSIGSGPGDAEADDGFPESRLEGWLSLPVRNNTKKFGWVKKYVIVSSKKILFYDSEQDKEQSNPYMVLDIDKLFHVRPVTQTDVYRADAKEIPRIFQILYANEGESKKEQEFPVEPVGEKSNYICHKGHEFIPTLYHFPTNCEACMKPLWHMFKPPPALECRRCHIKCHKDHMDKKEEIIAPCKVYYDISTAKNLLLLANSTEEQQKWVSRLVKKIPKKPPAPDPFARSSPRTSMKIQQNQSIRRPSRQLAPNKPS
row,IC50,SMILES
1,40.4 nM,"O=C(CCc1ccccc1)Nc1ccc2c(c1)OCc1cnccc1-2 [Example I-60, N-(5H-chromeno[3,4-c]pyridin-8-yl)-3-phenylpropanamide]"
2,4720 nM,"O=C(Nc1ccc2c(c1)OCc1cnccc1-2)c1ccc2ccccc2c1 [Example I-61, N-(5H-chromeno[3,4-c]pyridin-8-yl)-2-naphthamide]"
3,2960 nM,"Cn1cccc1C(=O)Nc1ccc2c(c1)OCc1cnccc1-2 [Example I-64, N-(5H-chromeno[3,4-c]pyridin-8-yl)-1-methyl-1H-pyrrole-2-carboxamide]"
4,1220 nM,"O=C(Nc1ccc2c(c1)OCc1cnccc1-2)c1ccccc1-c1ccccc1 [Example I-65, N-(5H-chromeno[3,4-c]pyridin-8-yl) biphenyl-2-carboxamide]"
5,2590 nM,"COc1cccc(C(=O)Nc2ccc3c(c2)OCc2cnccc2-3)c1 [Example I-66, N-(5H-chromeno[3,4-c]pyridin-8-yl)-3-methoxybenzamide]"
6,471 nM,"O=C(CC(c1ccccc1)c1ccccc1)Nc1ccc2c(c1)OCc1cnccc1-2 [Example I-67, N-(5H-chromeno[3,4-c]pyridin-8-yl)-3,3-diphenylpropanamide]"
7,1080 nM,"O=C(Cc1ccc(C(F)(F)F)cc1)Nc1ccc2c(c1)OCc1cnccc1-2 [Example I-69, N-(5H-chromeno[3,4-c]pyridin-8-yl)-2-(4-(trifluoromethyl)phenyl)acetamide]"
8,316 nM,"O=C(Nc1ccc2c(c1)OCc1cnccc1-2)c1csc(-c2ccncc2)n1 [Example I-71, N-(5H-chromeno[3,4-c]pyridin-8-yl)-2-(pyridin-4-yl)thiazole-4-carboxamide]"
9,58.7 nM,"O=C(Nc1ccc2c(c1)OCc1cnccc1-2)C1Cc2ccccc2C1 [Example I-72, N-(5H-chromeno[3,4-c]pyridin-8-yl)-2,3-dihydro-1H-indene-2-carboxamide]"
10,619 nM,"O=C(Nc1ccc2c(c1)OCc1cnccc1-2)c1nc2ccccc2[nH]1 [Example I-73, N-(5H-chromeno[3,4-c]pyridin-8-yl)-1H-benzo[d]imidazole-2-carboxamide]"
11,50.9 nM,"COc1cccc(CCC(=O)Nc2ccc3c(c2)[nH]c2cnccc23)c1 [Example IV-1, 3-(3-Methoxyphenyl)-N-(9H-pyrido[3,4-b]indol-7-yl)propanamide]"
12,21 nM,"O=C(Cc1cccc(F)c1)Nc1ccc2c(c1)[nH]c1cnccc12 [Example IV-3, 2-(3-Fluorophenyl)-N-(9H-pyrido[3,4-b]indol-7-yl)acetamide]"
13,383 nM,"N#Cc1cccc(CC(=O)Nc2ccc3c(c2)[nH]c2cnccc23)c1 [Example IV-5, 2-(3-Cyanophenyl)-N-(9H-pyrido[3,4-b]indol-7-yl)acetamide]"
14,557 nM,"O=C(Nc1ccc2c(c1)OCc1cnccc1-2)Nc1ccccc1Cl [II-2, 1-(2-chlorophenyl)-3-(5H-chromeno[3,4-c]pyridin-8-yl) urea]"
15,189 nM,"O=C(NCCc1ccccc1)Nc1ccc2c(c1)OCc1cnccc1-2 [II-3, 1-(5H-chromeno[3,4-c]pyridin-8-yl)-3-phenethylurea]"
16,2370 nM,"O=C(Nc1cccc(Cl)c1)Nc1ccc2c(c1)OCc1cnccc1-2 [II-4, 1-(3-chlorophenyl)-3-(5H-chromeno[3,4-c]pyridin-8-yl) urea]"
17,1420 nM,"O=C(Nc1cccnc1)Nc1ccc2c(c1)OCc1cnccc1-2 [II-5, 1-(5H-chromeno[3,4-c]pyridin-8-yl)-3-(pyridin-3-yl)urea]"
18,1610 nM,"COc1ccc(CCNC(=O)Nc2ccc3c(c2)OCc2cnccc2-3)cc1 [II-6, 1-(5H-chromeno[3,4-c]pyridin-8-yl)-3-(4-methoxyphenethyl) urea]"
19,233 nM,"O=C(NCCc1ccccc1F)Nc1ccc2c(c1)OCc1cnccc1-2 [II-7, 1-(5H-chromeno[3,4-c]pyridin-8-yl)-3-(2-fluorophenethyl)urea]"
20,910 nM,"O=C(NCC(c1ccccc1)c1ccccc1)Nc1ccc2c(c1)OCc1cnccc1-2 [II-8, 1-(5H-chromeno[3,4-c]pyridin-8-yl)-3-(2,2-diphenylethyl)urea]"
21,971 nM,"O=C(NCCc1ccc(Cl)cc1)Nc1ccc2c(c1)OCc1cnccc1-2 [II-9, 1-(4-chlorophenethyl)-3-(5H-chromeno[3,4-c]pyridin-8-yl) urea]"
22,248 nM,"O=C(NCCc1cccc(Cl)c1)Nc1ccc2c(c1)OCc1cnccc1-2 [II-10, 1-(3-chlorophenethyl)-3-(5H-chromeno[3,4-c]pyridin-8-yl) urea]"
23,2240 nM,"Cc1onc(-c2ccccc2)c1NC(=O)Nc1ccc2c(c1)OCc1cnccc1-2 [II-11, 1-(5H-chromeno[3,4-c]pyridin-8-yl)-3-(5-methyl-3-phenylisoxazol-4-yl)urea]"
24,685 nM,"O=C(NCCc1ccc2c(c1)OCO2)Nc1ccc2c(c1)OCc1cnccc1-2 [II-12, 1-(2-(benzo[d][1,3]dioxol-5-yl)ethyl)-3-(5H-chromeno[3,4-c]pyridin-8-yl)urea]"

row,SMILES,IC50
1,"COC(=O)c1ccc(C(=O)Nc2ccc3c(c2)OCc2cnccc2-3)cc1 [Example I-56, methyl 4-(5H-chromeno[3,4-c]pyridin-8-ylcarbamoyl) benzoate]",626 nM
2,"COc1ccc(CCC(=O)Nc2ccc3c(c2)OCc2cnccc2-3)cc1 [Example I-57, N-(5H-chromeno[3,4-c]pyridin-8-yl)-3-(4-methoxyphenyl) propanamide]",1140 nM
3,"O=C(CCc1ccc(O)cc1)Nc1ccc2c(c1)OCc1cnccc1-2 [Example I-58, N-(5H-chromeno[3,4-c]pyridin-8-yl)-3-(4-hydroxyphenyl) propanamide]",111 nM
4,"O=C(Cc1nnn[nH]1)Nc1ccc2c(c1)OCc1cnccc1-2 [Example I-59, N-(5H-chromeno[3,4-c]pyridin-8-yl)-2-(1H-tetrazol-5-yl) acetamide]",3820 nM
5,"CN(C)c1ccc(C(=O)Nc2ccc3c(c2)OCc2cnccc2-3)cc1 [Example I-63, N-(5H-chromeno[3,4-c]pyridin-8-yl)-4-(dimethylamino) benzamide]",2370 nM
6,"O=C(Cc1ccc(Cl)c(Cl)c1)Nc1ccc2c(c1)OCc1cnccc1-2 [Example I-68, N-(5H-chromeno[3,4-c]pyridin-8-yl)-2-(3,4-dichlorophenyl) acetamide]",362 nM
7,"O=C(Cc1ccc(-n2cnc3ccccc3c2=O)cc1)Nc1ccc2c(c1)OCc1cnccc1-2 [Example I-70, N-(5H-chromeno[3,4-c]pyridin-8-yl)-2-(4-(4-oxoquinazolin-3(4H)-yl)phenyl) acetamide]",1130 nM
8,"O=C(Nc1ccc2c(c1)OCc1cnccc1-2)N1CCc2ccccc21 [Example II-1, N-(5H-Chromeno[3,4-c]pyridin-8-yl)indoline-1-carboxamide]",387 nM
9,"O=C(Cc1ccccc1)Nc1ccc2c(c1)[nH]c1cnccc12 [Example IV-4, 2-Phenyl-N-(9H-pyrido[3,4-b]indol-7-yl)acetamide]",9.5 nM

# System: rat models of hypertension
# Test: not given
# Settings: control rats; cited from earlier work
row,SMILES,blood pressure in control rats
1,"C[C@@H](N)[C@H]1CC[C@H](C(=O)Nc2ccncc2)CC1 [Example Y-27632, Y-27632]",only a minor effect on blood pressure

# Same assay, conditions: spontaneously hypertensive rat, renal hypertensive rat and deoxycortisone acetate salt hypertensive rat models; cited from earlier work
row,SMILES,blood pressure
1,"C[C@@H](N)[C@H]1CC[C@H](C(=O)Nc2ccncc2)CC1 [Example Y-27632, Y-27632]",significantly decrease blood pressure

# System: neointimal formation
# Test: not given
# Settings: rats, balloon injury model; cited from earlier work
row,SMILES,neointimal formation
1,"C[C@@H](N)[C@H]1CC[C@H](C(=O)Nc2ccncc2)CC1 [Example Y-27632, Y-27632]",inhibited neointimal formation

# System: IL-1 beta-induced coronary stenosis
# Test: not given
# Settings: long term treatment; cited from earlier work
SMILES,coronary constrictive remodeling,coronary stenosis
O=S(=O)(c1cccc2cnccc12)N1CCCNCC1 [fasudil],promote a regression of coronary constrictive remodeling,progressively reduce coronary stenosis

# System: rat stroke model
# Test: not given
# Settings: in vivo; cited from earlier work
row,SMILES,infarct size and neurologic deficit
1,O=S(=O)(c1cccc2cnccc12)N1CCCNCC1 [fasudil],reduce both the infarct size and neurologic deficit

# System: congestive heart failure in Dahl salt-sensitive rats
# Test: not given
# Settings: rat, in vivo; cited from earlier work
row,SMILES,"ventricular hypertrophy, fibrosis and function"
1,"C[C@@H](N)[C@H]1CC[C@H](C(=O)Nc2ccncc2)CC1 [Example Y-27632, Y-27632]","improve ventricular hypertrophy, fibrosis and function"
